A short description of the data set: in vitro. Particulars: human.

As usually defined, the half-life is the time needed for the level to fall by half in the phase considered.

SMILES strings stand for the structures.

`Cc1nc2ccccc2n1-c1ccc(C(=O)N(C)[C@@H]2CCN(C3CCC3)C2)cc1` gave a half-life (liver microsomes) of 15 min.

Regarding `Cc1nc2ccccc2n1-c1ccc(C(=O)N(C)[C@@H]2CCN(C3CCCC3)C2)cc1`, under “liver microsomes”, the half-life was above 30 min.

Where the note is “microsomes”, `Cc1nc2ccccc2n1-c1ccc(C(=O)N(C)[C@@H]2CCN(C3CCCCC3)C2)cc1` came in with a half-life above 30 min.

The values above are taken from ChEMBL document CHEMBL1833939, “Pyrrolidin-3-yl-N-methylbenzamides as potent histamine 3 receptor antagonists” (Bioorg Med Chem Lett, 2011).
